The source of these data is patent US10407381B2 (THE BOARD OF TRUSTEES OF THE UNIVERSITY OF ILLINOIS, priority 2015, dated 2019).

One experiment concerns the target 5-HT2B (Homo sapiens, UniProt P41595). Put plainly: Calcium flux (FLIPR) assay, human 5-HT2B stably expressed in HEK-293 (Flp-In-293) cells. Particulars: human 5-HT2B in HEK-293 cells; for EC50: EC50, nM 5-HT2B, NA = no activity at 10 μM; for Emax, % 5-HT 5-HT2B: normalized to 5-HT. Background: A change in cytosolic calcium serves as a functional read-out for many receptors and channels.

A further experiment addresses T1, human 5-HT2C-INI (Homo sapiens, UniProt P28335).
T1 sequence (P28335 33-458): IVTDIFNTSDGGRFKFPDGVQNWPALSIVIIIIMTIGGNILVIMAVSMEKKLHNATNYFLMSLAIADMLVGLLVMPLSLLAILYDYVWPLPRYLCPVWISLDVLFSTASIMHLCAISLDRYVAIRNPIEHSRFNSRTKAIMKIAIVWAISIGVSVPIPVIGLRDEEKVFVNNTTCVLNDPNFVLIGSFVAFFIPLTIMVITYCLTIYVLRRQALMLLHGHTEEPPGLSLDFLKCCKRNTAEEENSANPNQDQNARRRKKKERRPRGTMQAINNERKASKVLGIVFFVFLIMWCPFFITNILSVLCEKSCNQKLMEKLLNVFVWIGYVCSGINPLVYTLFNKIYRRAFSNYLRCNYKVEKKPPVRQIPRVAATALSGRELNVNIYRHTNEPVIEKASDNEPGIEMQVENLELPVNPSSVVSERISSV
Put plainly: Calcium flux (FLIPR) assay, human 5-HT2C-INI stably expressed in HEK-293 (Flp-In-293) cells. Particulars: human 5-HT2C-INI in HEK-293 cells, FLIPR; for EC50: NA = no activity at 10 μM; for Emax, % 5-HT 5-HT2C: normalized to 5-HT.

Each structure is given as a SMILES string. Where two headings read alike, the source gives them in different places.

Sequence of 5-HT2B (P41595 whole entry): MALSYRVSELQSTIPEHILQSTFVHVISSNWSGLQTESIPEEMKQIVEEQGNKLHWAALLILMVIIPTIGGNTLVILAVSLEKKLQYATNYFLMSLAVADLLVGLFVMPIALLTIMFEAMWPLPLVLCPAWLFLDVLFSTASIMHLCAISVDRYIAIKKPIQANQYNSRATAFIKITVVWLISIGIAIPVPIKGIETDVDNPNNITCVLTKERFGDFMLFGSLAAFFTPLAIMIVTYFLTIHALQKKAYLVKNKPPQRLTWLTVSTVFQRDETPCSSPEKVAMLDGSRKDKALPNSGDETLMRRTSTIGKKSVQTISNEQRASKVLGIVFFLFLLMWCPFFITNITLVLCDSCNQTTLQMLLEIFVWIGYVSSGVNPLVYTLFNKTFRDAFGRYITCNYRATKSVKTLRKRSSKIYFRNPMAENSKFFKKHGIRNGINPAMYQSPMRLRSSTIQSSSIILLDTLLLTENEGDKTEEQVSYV

One may read the EC50 as the concentration at which the effect is half-maximal. `NCC1CC1c1cc(Cl)ccc1OCCCF` (single isomer, unassigned; (+)) [(+)-Example 20, (+)-(2-(5-Chloro-2-(3-fluoropropoxy)phenyl)cyclopropyl)methanamine]: the EC50 stood at 4910 nM at 5-HT2B and 206 nM at human 5-HT2C-INI (EC50, nM 5-HT2C). Also, on 5-HT2B, the “Emax, % 5-HT 5-HT2B” value is recorded as “(22%) % 5-HT”. At human 5-HT2C-INI, the “Emax, % 5-HT 5-HT2C” value is recorded as “(60%) % 5-HT”.
For `NCC1CC1c1c(OCCF)ccc(Cl)c1F` (single isomer, unassigned; (-)) [(−)-Example 31, (−)-(2-(3-Chloro-2-fluoro-6-(2-fluoroethoxy)phenyl)cyclopropyl)methanamine], the “Emax, % 5-HT 5-HT2B” value on 5-HT2B was “(0%) % 5-HT”. The EC50 at human 5-HT2C-INI (EC50, nM 5-HT2C) amounted to 386 nM. Further, the “Emax, % 5-HT 5-HT2C” value on human 5-HT2C-INI is recorded as “(80%) % 5-HT”.
Turning to `CSCCOc1ccc(Cl)cc1C1CC1CN` (single isomer, unassigned; (+)) [(+)-Example 18, (+)-(2-(5-Chloro-2-(2-(methylthio)ethoxy)phenyl)cyclopropyl)methanamine], at human 5-HT2C-INI (EC50, nM 5-HT2C), the EC50 came to 244 nM. The “Emax, % 5-HT 5-HT2C” value at human 5-HT2C-INI is listed as “(24%) % 5-HT”.
As to `C=CCOc1ccc(F)c(F)c1C1CC1CN` (single isomer, unassigned; (+)) [(+)-Example 49, (+)-(2-(6-(Allyloxy)-2,3-difluorophenyl)cyclopropyl)methanamine], on 5-HT2B, the EC50 was determined as 3340 nM and the “Emax, % 5-HT 5-HT2B” value is listed as “(35%) % 5-HT”. Also, on human 5-HT2C-INI (EC50, nM 5-HT2C), the 50% effective concentration (EC50) is 36 nM. Moreover, on human 5-HT2C-INI, the “Emax, % 5-HT 5-HT2C” value is recorded as “(100%) % 5-HT”.
In the case of `NCC1CC1c1cc(F)c(F)cc1OCCF` (single isomer, unassigned; (+)) [(+)-Example 42, (+)-(2-(4,5-Difluoro-2-(2-fluoroethoxy)phenyl)cyclopropyl)methanamine], at human 5-HT2C-INI (EC50, nM 5-HT2C), the EC50 turned out to be 7.3 nM. Further, the “Emax, % 5-HT 5-HT2C” value on human 5-HT2C-INI was “(95%) % 5-HT”.
Consider `C#CCOc1cc(F)c(Cl)cc1C1CC1CN` (single isomer, unassigned; (-)) [(−)-Example 6, (−)-(2-(5-Chloro-4-fluoro-2-(prop-2-yn-1-yloxy)phenyl)cyclopropyl)methanamine], for which the EC50 at 5-HT2B worked out at 4210 nM; at human 5-HT2C-INI (EC50, nM 5-HT2C) it was 117 nM. On 5-HT2B, the “Emax, % 5-HT 5-HT2B” value is recorded as “(33%) % 5-HT”. The “Emax, % 5-HT 5-HT2C” value at human 5-HT2C-INI is on record as “(92%) % 5-HT”.
Turning to `CSCCOc1ccc(Cl)cc1C1CC1CN` (single isomer, unassigned; (-)) [(−)-Example 18, (−)-(2-(5-Chloro-2-(2-(methylthio)ethoxy)phenyl)cyclopropyl)methanamine], the EC50 at human 5-HT2C-INI (EC50, nM 5-HT2C) worked out at 1760 nM. The “Emax, % 5-HT 5-HT2C” value at human 5-HT2C-INI is on record as “(11%) % 5-HT”.
On to `NCC1CC1c1cc(Cl)ccc1OCCF` (single isomer, unassigned; (-)) [(−)-Example 19, (−)-(2-(5-Chloro-2-(2-fluoroethoxy)phenyl)cyclopropyl)methanamine], for which, at 5-HT2B, the EC50 was found to be 4520 nM and the “Emax, % 5-HT 5-HT2B” value was “(31%) % 5-HT”. Besides, at human 5-HT2C-INI (EC50, nM 5-HT2C), the EC50 amounted to 1130 nM. At human 5-HT2C-INI, the “Emax, % 5-HT 5-HT2C” value is listed as “(59%) % 5-HT”.
In the same order, the values of `COCCOc1ccc(Cl)cc1C1CC1CN` (single isomer, unassigned; (-)) [(−)-Example 17, (−)-(2-(5-Chloro-2-(2-methoxyethoxy)phenyl)cyclopropyl)methanamine] are 5300 nM, “(32%) % 5-HT”, 667 nM and “(45%) % 5-HT”.
The corresponding values for `CCOc1ccc(F)c(Cl)c1C1CC1CN` (single isomer, unassigned; (-)) [(−)-Example 51, (−)-(2-(2-Chloro-6-ethoxy-3-fluorophenyl)cyclopropyl)methanamine] are 1640 nM, “(33%) % 5-HT”, 38 nM and “(89%) % 5-HT”.
Take `C=CCOc1ccc(F)c(Cl)c1C1CC1CN` (single isomer, unassigned; (+)) [(+)-Example 53, (+)-(2-(6-(Allyloxy)-2-chloro-3-fluorophenyl)cyclopropyl)methanamine]: the EC50 at human 5-HT2C-INI (EC50, nM 5-HT2C) came out at 96 nM. Further, at human 5-HT2C-INI, the “Emax, % 5-HT 5-HT2C” value is given as “(92% 5-HT”.
Turning to `CCCOc1ccc(Cl)cc1C1CC1CN` (single isomer, unassigned; (+)) [(+)-Example 12, (+)-(2-(5-Chloro-2-propoxyphenyl)cyclopropyl)methanamine], at 5-HT2B, the EC50 was 3440 nM and the “Emax, % 5-HT 5-HT2B” value was “(25%) % 5-HT”. Besides, the 50% effective concentration (EC50) at human 5-HT2C-INI (EC50, nM 5-HT2C) was 103 nM. The “Emax, % 5-HT 5-HT2C” value at human 5-HT2C-INI was “(72%) % 5-HT”.
For `NCC1CC1c1c(OCCF)ccc(F)c1Cl` (single isomer, unassigned; (-)) [(−)-Example 52, (−)-(2-(2-Chloro-3-fluoro-6-(2-fluoroethoxy)phenyl)cyclopropyl)methanamine], at 5-HT2B, the “Emax, % 5-HT 5-HT2B” value is on record as “(29%) % 5-HT”. For the same molecule, the “Emax, % 5-HT 5-HT2C” value at human 5-HT2C-INI is recorded as “(80%) % 5-HT”. In addition, the EC50 on human 5-HT2C-INI (read-out: EC50, nM 5-HT2C) came out at 135 nM.
As for `NCC1CC1c1c(OCCF)ccc(F)c1F` (single isomer, unassigned; (+)) [(+)-Example 47, (+)-(2-(2,3-Difluoro-6-(2-fluoroethoxy)phenyl)cyclopropyl)methanamine], the EC50 at human 5-HT2C-INI (EC50, nM 5-HT2C) came to 25 nM. Moreover, the “Emax, % 5-HT 5-HT2C” value at human 5-HT2C-INI is “(95%) % 5-HT”.
Regarding `NCC1CC1c1c(OCCF)ccc(Cl)c1F` (single isomer, unassigned; (+)) [(+)-Example 31, (+)-(2-(3-Chloro-2-fluoro-6-(2-fluoroethoxy)phenyl)cyclopropyl)methanamine], on 5-HT2B, the “Emax, % 5-HT 5-HT2B” value was “(15%) % 5-HT”. The half-maximal effective concentration (EC50) on human 5-HT2C-INI (EC50, nM 5-HT2C) came to 71 nM. Besides, at human 5-HT2C-INI, the “Emax, % 5-HT 5-HT2C” value is listed as “(86%) % 5-HT”.
For `NCC1CC1c1cc(F)c(F)cc1OCCF` (single isomer, unassigned; (-)) [(−)-Example 42, (−)-(2-(4,5-Difluoro-2-(2-fluoroethoxy)phenyl)cyclopropyl)methanamine], at human 5-HT2C-INI (EC50, nM 5-HT2C), the EC50 worked out at 772 nM. Besides, on human 5-HT2C-INI, the “Emax, % 5-HT 5-HT2C” value is “(73%) % 5-HT”.
For the molecule `C#CCOc1ccc(Cl)cc1C1CC1CN` (single isomer, unassigned; (-)) [(−)-Example 26, (−)-(2-(5-Chloro-2-(prop-2-yn-1-yloxy)phenyl)cyclopropyl)methanamine], the EC50 at 5-HT2B turned out to be 4410 nM; at human 5-HT2C-INI (EC50, nM 5-HT2C), 365 nM. The “Emax, % 5-HT 5-HT2B” value on 5-HT2B is recorded as “(30%) % 5-HT”. The “Emax, % 5-HT 5-HT2C” value on human 5-HT2C-INI is listed as “(71%) % 5-HT”.
Consider `NCC1CC1c1c(OCCF)ccc(F)c1F` (single isomer, unassigned; (-)) [(−)-Example 47, (−)-(2-(2,3-Difluoro-6-(2-fluoroethoxy)phenyl)cyclopropyl)methanamine], for which the “Emax, % 5-HT 5-HT2B” value at 5-HT2B is reported as “(29%) % 5-HT”. At human 5-HT2C-INI (EC50, nM 5-HT2C), the EC50 amounted to 509 nM. In addition, at human 5-HT2C-INI, the “Emax, % 5-HT 5-HT2C” value was “(78%) % 5-HT”.
For the molecule `C=C(F)COc1ccc(F)cc1C1CC1CN` (single isomer, unassigned; (-)) [(−)-Example 9, (−)-(2-(5-Fluoro-2-((2-fluoroallyl)oxy)phenyl)cyclopropyl)methanamine], the EC50 at human 5-HT2C-INI (EC50, nM 5-HT2C) is 985 nM. Besides, at human 5-HT2C-INI, the “Emax, % 5-HT 5-HT2C” value is “(62%) % 5-HT”.
With `C=C(F)COc1ccc(Cl)cc1C1CC1CN` (single isomer, unassigned; (-)) [(−)-Example 25, (−)-(2-(5-Chloro-2-((2-fluoroallyl)oxy)phenyl)cyclopropyl)methanamine], on 5-HT2B, the EC50 turned out to be 6880 nM and the “Emax, % 5-HT 5-HT2B” value is reported as “(33%) % 5-HT”.
As to `C=CCOc1cc(Cl)c(Cl)cc1C1CC1CN` (single isomer, unassigned; (+)) [(+)-Example 35, (+)-(2-(2-(Allyloxy)-4,5-dichlorophenyl)cyclopropyl)methanamine], the EC50 at human 5-HT2C-INI (EC50, nM 5-HT2C) was 61 nM. Further, the “Emax, % 5-HT 5-HT2C” value at human 5-HT2C-INI was “(88%) % 5-HT”.
Take `C=CCOc1ccc(Cl)c(Cl)c1C1CC1CN` (single isomer, unassigned; (+)) [(+)-Example 39]: the “Emax, % 5-HT 5-HT2C” value at human 5-HT2C-INI is “(70%) % 5-HT”. Also, at human 5-HT2C-INI (read-out: EC50, nM 5-HT2C), the EC50 was 165 nM.
Regarding `COCCOc1ccc(Cl)cc1C1CC1CN` (single isomer, unassigned; (+)) [(+)-Example 17, (+)-(2-(5-Chloro-2-(2-methoxyethoxy)phenyl)cyclopropyl)methanamine], at human 5-HT2C-INI (EC50, nM 5-HT2C), the EC50 was found to be 183 nM. For the same molecule, the “Emax, % 5-HT 5-HT2C” value on human 5-HT2C-INI was “(8%) % 5-HT”.
In the case of `CCCOc1ccc(F)c(F)c1C1CC1CN` (single isomer, unassigned; (-)) [(−)-Example 48, (−)-(2-(2,3-Difluoro-6-propoxyphenyl)cyclopropyl)methanamine], on human 5-HT2C-INI (EC50, nM 5-HT2C), the EC50 was determined as 357 nM. The “Emax, % 5-HT 5-HT2C” value at human 5-HT2C-INI was “(68%) % 5-HT”.
For `C=C(C)COc1ccc(Cl)cc1C1CC1CN` (single isomer, unassigned; (-)) [(−)-Example 24, (−)-(2-(5-Chloro-2-((2-methylallyl)oxy)phenyl)cyclopropyl)methanamine], at 5-HT2B, the concentration for a half-maximal effect (EC50) came out at 6090 nM and the “Emax, % 5-HT 5-HT2B” value is recorded as “(39%) % 5-HT”.
As to `NCC1CC1c1c(OCCF)ccc(F)c1Cl` (single isomer, unassigned; (+)) [(+)-Example 52, (+)-(2-(2-Chloro-3-fluoro-6-(2-fluoroethoxy)phenyl)cyclopropyl)methanamine], the half-maximal effective concentration (EC50) on human 5-HT2C-INI (EC50, nM 5-HT2C) was 49 nM. Besides, the “Emax, % 5-HT 5-HT2C” value on human 5-HT2C-INI is “(86%) % 5-HT”.
